# In patent US8193189B2, “Quinoxaline derivatives as tyrosine kinase activity inhibitors” (Novartis AG, priority 2007, dated 2012):
# Tests used:
# GST-JAK2(808-1132) = biological target: T1, GST-JAK2(808-1132) (Homo sapiens, UniProt O60674); assay: EPK JAK-family kinases profiling assay (Caliper mobility shift), JAK2; type: biochemical; conditions: ATP 20 μM, 1.8 nM kinase
# T1 construct: GST-JAK2(808-1132); purchased Invitrogen (Carlsbad, USA) #4288
# Summary of the method: (§1)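 Turnover was read as substrate/product ratio after mobility-shift capillary-like separation of each reaction, run for 60 min at 30 °C with GST-tagged kinase domain, labelled peptide and ATP, and terminated with EDTA stop buffer.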
# GST-JAK3(811-1124) = biological target: T2, GST-JAK3(811-1124) (Homo sapiens, UniProt P52333); assay: EPK JAK-family kinases profiling assay (Caliper mobility shift), JAK3; type: biochemical; conditions: ATP 80 μM, 6 nM kinase
# T2 construct: GST-JAK3(811-1124); made in house
# T2 sequence (P52333 811-1124): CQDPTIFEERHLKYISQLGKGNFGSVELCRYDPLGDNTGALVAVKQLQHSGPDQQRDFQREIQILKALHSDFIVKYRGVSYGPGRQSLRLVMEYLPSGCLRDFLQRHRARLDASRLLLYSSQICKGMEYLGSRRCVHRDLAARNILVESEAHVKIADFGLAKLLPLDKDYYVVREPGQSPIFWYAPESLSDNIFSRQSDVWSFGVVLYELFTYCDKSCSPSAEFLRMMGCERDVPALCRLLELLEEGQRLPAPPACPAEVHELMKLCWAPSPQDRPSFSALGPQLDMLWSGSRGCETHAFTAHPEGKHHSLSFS
# Summary of the method: as §1
# [1] = tested on: JAK/STAT pathway (JAK1/JAK2-dependent nuclear translocation of STAT1-GFP); assay: Inhibition of the JAK/STAT pathway: IFN-γ stimulated nuclear translocation of STAT1-GFP in HT1080 fibrosarcoma cells; type: cell-based; conditions: Homo sapiens, HT-1080; HT1080 STAT1-GFP cells, 100 ng/ml IFN-γ 2 hours, compound added 30 min before; read-out: STAT1translo IC50
# Summary of the method: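 HT1080 cells stably expressing STAT1-GFP, compounds added 30 min before IFN-γ stimulation at final 10 μM down to 0.003 μM (0.1% DMSO). Nuclear-cytoplasmic GFP intensity differential quantified by automated imaging with Hoechst nuclear mask, ≥1000 cells per well, averaged per well.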
# GST-JAK1(866-1154) = biological target: T3, GST-JAK1(866-1154) (Homo sapiens, UniProt P23458); assay: EPK JAK-family kinases profiling assay (Caliper mobility shift), JAK1; type: biochemical; conditions: ATP 40 μM, 50 nM kinase
# T3 construct: GST-JAK1(866-1154); made in house
# T3 sequence (P23458 866-1154): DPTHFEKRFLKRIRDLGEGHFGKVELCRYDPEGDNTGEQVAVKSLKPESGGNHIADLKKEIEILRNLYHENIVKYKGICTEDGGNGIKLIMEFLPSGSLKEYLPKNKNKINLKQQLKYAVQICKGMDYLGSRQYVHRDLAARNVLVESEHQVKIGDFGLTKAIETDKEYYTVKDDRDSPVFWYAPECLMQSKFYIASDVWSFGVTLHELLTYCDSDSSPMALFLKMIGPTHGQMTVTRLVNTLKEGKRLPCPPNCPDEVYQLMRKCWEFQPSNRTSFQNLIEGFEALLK
# Summary of the method: as §1
# GST-TYK2(888-1187) = biological target: T4, GST-TYK2(888-1187) (Homo sapiens, UniProt P29597); assay: EPK JAK-family kinases profiling assay (Caliper mobility shift), TYK2; type: biochemical; conditions: ATP 30 μM, 40 nM kinase
# T4 construct: GST-TYK2(888-1187); made in house
# T4 sequence (P29597 888-1187): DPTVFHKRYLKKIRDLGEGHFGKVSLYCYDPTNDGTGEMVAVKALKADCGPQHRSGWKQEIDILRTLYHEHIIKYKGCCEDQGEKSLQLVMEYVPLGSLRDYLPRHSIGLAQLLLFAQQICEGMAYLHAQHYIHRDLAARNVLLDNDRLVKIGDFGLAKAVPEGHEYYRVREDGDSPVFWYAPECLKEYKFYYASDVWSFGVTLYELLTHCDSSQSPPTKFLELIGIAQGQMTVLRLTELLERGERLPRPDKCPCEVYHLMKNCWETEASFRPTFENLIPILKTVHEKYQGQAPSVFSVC
# Source text: All four kinases of the JAK-family kinases were used as purified recombinant GST-fusion proteins, containing the active kinase domains. GST-JAK1(866-1154), GST-JAK3(811-1124), and GST-TYK2(888-1187) were expressed and purified by affinity chromatography at the EPK biology unit. GST-JAK2(808-1132) was purchased from Invitrogen (Carlsbad, USA, #4288).
# The kinase assays were based on the Caliper mobility shift assay using the LabChip 3000 systems. This technology is similar to capillary electrophoresis and uses charge driven separation of substrate and product in a microfluidic chip.
# All kinase reactions were performed in 384 well microtiter plates in a total reaction volume of 18 μl. The assay plates were prepared with 0.1 μl per well of test compound in the appropriate test concentration, as described under the section “preparation of compound dilutions”. The reactions were started by combining 9 μl of substrate mix (consisting of peptide and ATP) with 9 μl of kinase dilution. The reactions were incubated for 60 minutes at 30° C. and stopped by adding 70 μl of stop buffer (100 mM Hepes, 5% DMSO, 0.1% Coating reagent, 10 mM EDTA, 0.015% Brij 35).
# Fluorescently labeled synthetic peptides were used as substrates in all reactions. […] Specific assay conditions are described in Table 1:
# The terminated reactions were transferred to the Caliper LabChip 3000 reader and the turnover of each reaction was measured by determining the substrate/product ratio.
# Test compounds were dissolved in DMSO (10 mM) and transferred into 1.4 mL flat bottom or V-shaped Matrix tubes carrying a unique 2D matrix chip by individual compound hubs. The numbers of these chips were distinctively linked to the individual compound identification numbers. The stock solutions were stored at −20° C. if not used immediately. For the test procedure the vials were defrosted and identified by a scanner whereby a working sheet was generated that guided the subsequent working steps.
# Compound dilutions were made in 96 well plates. This format enabled the assay of maximally 40 individual test compounds at 8 concentrations (single points) including 4 reference compounds. The dilution protocol included the production of pre-dilution plates, master plates and assay plates:
# Pre-dilution plates: 96 polypropylene well plates were used as pre-dilution plates. A total of 4 pre-dilution plates were prepared including 10 test compounds each on the plate positions A1-A10, one standard compound at A11 and one DMSO control at A12. All dilution steps were done on a HamiltonSTAR robot.
# Master plates: 100 μL of individual compound dilutions including standard compound and controls of the 4 “pre-dilution plates” were transferred into a 384 “master plate” including the following concentrations 1′820, 564, 182, 54.6, 18.2, 5.46, 1.82 and 0.546 μM, respectively in 90% of DMSO.
# Assay plates: Identical assay plates were then prepared by pipetting 100 nL each of compound dilutions of the master plates into 384-well “assay plates”. […] The preparation of the master plates were handled by the Matrix PlateMate Plus robot and replication of assay plates by the HummingBird robot.
# T1 sequence (O60674 808-1132): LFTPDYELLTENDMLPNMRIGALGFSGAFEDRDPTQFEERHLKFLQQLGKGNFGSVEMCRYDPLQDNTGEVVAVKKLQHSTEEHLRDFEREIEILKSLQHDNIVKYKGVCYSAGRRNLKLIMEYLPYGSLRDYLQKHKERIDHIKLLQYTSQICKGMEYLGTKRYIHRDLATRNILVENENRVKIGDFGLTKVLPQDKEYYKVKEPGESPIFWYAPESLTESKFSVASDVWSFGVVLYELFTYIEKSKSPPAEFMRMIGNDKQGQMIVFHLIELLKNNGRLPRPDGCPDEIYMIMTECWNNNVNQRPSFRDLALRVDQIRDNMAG
Compound,IC50 (GST-JAK2(808-1132)) [nM],IC50 (GST-JAK3(811-1124)) [nM],IC50 [1] [nM],IC50 (GST-JAK1(866-1154)) [nM],IC50 (GST-TYK2(888-1187)) [nM]
"COc1cc(-c2cnc3cccc(-c4ccc(C(=O)N5CCOCC5)c(F)c4)c3n2)ccc1OCCN1CCOCC1 [Example 35, (2-Fluoro-4-{3-[3-methoxy-4-(2-morpholin-4-yl-ethoxy)-phenyl]-quinoxalin-5-yl}-phenyl)-morpholin-4-yl-methanone]",11.9,1860,1720,94,520
"Cc1cc(-c2cnc3cccc(-c4cc(F)c(CN5CCOCC5)c(F)c4)c3n2)ccc1C(=O)N1CCN(C)CC1 [Example 42, {4-[8-(3,5-Difluoro-4-morpholin-4-ylmethyl-phenyl)-quinoxalin-2-yl]-2-methyl-phenyl}-(4-methyl-piperazin-1-yl)-methanone]",18,2150,857,715,1450
"Cc1cc(-c2cccc3ncc(-c4ccc(C(=O)N5CCN(C)CC5)c(C)c4)nc23)ccc1CN1CCS(=O)(=O)CC1 [Example 43, (4-{8-[4-(1,1-Dioxido-thiomorpholin-4-ylmethyl)-3-methyl-phenyl]-quinoxalin-2-yl}-2-methyl-phenyl)-(4-methyl-piperazin-1-yl)-methanone]",27,870,1130,420,715
"Cc1cc(-c2cnc3cccc(-c4cc(F)c(CN5CCOCC5)c(F)c4)c3n2)ccc1C(=O)N1CCC(N(C)C)CC1 [Example 101, {4-[8-(3,5-Difluoro-4-morpholin-4-ylmethyl-phenyl)-quinoxalin-2-yl]-2-methyl-phenyl}-(4-dimethylamino-piperidin-1-yl)-methanone]",14,1020,,575,1450
"CS(=O)(=O)c1ccc(-c2cccc3ncc(-c4cnn(C5CCNCC5)c4)nc23)cc1 [Example 144, 8-(4-Methanesulfonyl-phenyl)-2-(1-piperidin-4-yl-1H-pyrazol-4-yl)-quinoxaline]",25,,7660,960,970
"Fc1cc(-c2cccc3ncc(-c4cnn(C5CCNCC5)c4)nc23)ccc1CN1CCOCC1 [Example 145, 8-(3-Fluoro-4-morpholin-4-ylmethyl-phenyl)-2-(1-piperidin-4-yl-1H-pyrazol-4-yl)-quinoxaline]",10,,685,250,300
"Cc1cc(CN2CCS(=O)(=O)CC2)ccc1-c1cccc2ncc(-c3cnn(C4CCNCC4)c3)nc12 [Example 149, 8-[4-(1,1-Dioxido-thiomorpholin-4-ylmethyl)-2-methyl-phenyl]-2-(1-piperidin-4-yl-1H-pyrazol-4-yl)-quinoxaline]",51,,9560,650,900
"c1cc(-c2ccc(CN3CCOCC3)cc2)c2nc(-c3cnn(C4CCNCC4)c3)cnc2c1 [Example 150, 8-(4-Morpholin-4-ylmethyl-phenyl)-2-(1-piperidin-4-yl-1H-pyrazol-4-yl)-quinoxaline]",30,,4280,830,830

# These reach a lower IC50 (GST-JAK2(808-1132)). Values come first.
IC50 (GST-JAK2(808-1132)) [nM],IC50 (GST-JAK3(811-1124)) [nM],IC50 [1] [nM],IC50 (GST-JAK1(866-1154)) [nM],IC50 (GST-TYK2(888-1187)) [nM],Compound
9.35,3250,,475,540,"COCCOC(=O)N1CCC(n2cc(-c3cnc4cccc(-c5cc(F)c(CN6CCOCC6)c(F)c5)c4n3)cn2)CC1 [Example 122, 4-{4-[8-(3,5-Difluoro-4-morpholin-4-ylmethyl-phenyl)-quinoxalin-2-yl]-pyrazol-1-yl}-piperidine-1-carboxylic acid 2-methoxy-ethyl ester]"
9.2,,3390,840,570,"Cc1cc(-c2cccc3ncc(-c4cnn(C5CCNCC5)c4)nc23)ccc1CN1CCOCC1 [Example 146, 8-(3-Methyl-4-morpholin-4-ylmethyl-phenyl)-2-(1-piperidin-4-yl-1H-pyrazol-4-yl)-quinoxaline]"
8,2900,,243,437,"Fc1cc(-c2cccc3ncc(-c4cnn(C5CNC5)c4)nc23)cc(F)c1CN1CCOCC1 [Example 116, 2-(1-Azetidin-3-yl-1H-pyrazol-4-yl)-8-(3,5-difluoro-4-morpholin-4-ylmethyl-phenyl)-quinoxaline]"
6.55,405,49,150,240,"Cc1cc(-c2cnc3cccc(-c4cc(F)c(CN5CCS(=O)(=O)CC5)c(F)c4)c3n2)ccc1C(=O)N1CCN(C)CC1 [Example 44, (4-{8-[4-(1,1-Dioxido-thiomorpholin-4-ylmethyl)-3,5-difluoro-phenyl]-quinoxalin-2-yl}-2-methyl-phenyl)-(4-methyl-piperazin-1-yl)-methanone]"
5.4,,840,550,750,"Fc1cc(-c2cccc3ncc(-c4cnn(CC5CCNCC5)c4)nc23)cc(F)c1CN1CCOCC1 [Example 133, 8-(3,5-Difluoro-4-morpholin-4-ylmethyl-phenyl)-2-(1-piperidin-4-ylmethyl-1H-pyrazol-4-yl)-quinoxaline]"
4.6,,532,290,260,"CC(C)(C)OC(=O)N1CCC(n2cc(-c3cnc4cccc(-c5cc(F)c(CN6CCOCC6)c(F)c5)c4n3)cn2)CC1 [Example 136, 4-{4-[8-(3,5-Difluoro-4-morpholin-4-ylmethyl-phenyl)-quinoxalin-2-yl]-pyrazol-1-yl}-piperidine-1-carboxylic acid tert-butyl ester]"
4.1,490,338,27,88,"COc1cc(-c2cnc3cccc(-c4ccc(CC(=O)N5CCOCC5)cc4)c3n2)ccc1OCCN1CCOCC1 [Example 34, 2-(4-{3-[3-Methoxy-4-(2-morpholin-4-yl-ethoxy)-phenyl]-quinoxalin-5-yl}-phenyl)-1-morpholin-4-yl-ethanone]"
4,,296,21,140,"CN1CCN(c2cccc(-c3cnc4cccc(-c5cc(F)c(CN6CCS(=O)(=O)CC6)c(F)c5)c4n3)c2)CC1 [Example 170, 8-[4-(1,1-Dioxido-thiomorpholin-4-ylmethyl)-3,5-difluoro-phenyl]-2-[3-(4-methyl-piperazin-1-yl)-phenyl]-quinoxaline]"
3.4,,730,73,110,"O=S1(=O)CCN(Cc2ccc(-c3cccc4ncc(-c5cnn(C6CCNCC6)c5)nc34)cc2)CC1 [Example 148, 8-[4-(1,1-Dioxido-thiomorpholin-4-ylmethyl)-phenyl]-2-(1-piperidin-4-yl-1H-pyrazol-4-yl)-quinoxaline]"
